According to article PMC6442119, “The antitumor activity of CYB-L10, a human topoisomerase IB catalytic inhibitor” (Journal of Enzyme Inhibition and Medicinal Chemistry, 2019):

Assays:
Assay in all cases: MTT assay
DU-145 = format: cell-based; settings: Homo sapiens; Parental cell line DU-145, MTT, 72 h
RC0.1 = settings: Homo sapiens, 72 h, read-out: GI50 ± SD
MCF-7 = format: cell-based; settings: Homo sapiens, MCF7; Parental cell line MCF-7, MTT, 72 h

SMILES: CC[C@@]1(O)C(=O)OCc2c1cc1n(c2=O)Cc2cc3ccccc3nc2-1 [CPT, Camptothecin, reference compound]
- GI50 (DU-145): 19 ± 9 nM
- GI50 (RC0.1): 7530 ± 1880 nM

SMILES: COc1cccc2c1C(=O)c1c(O)c3c(c(O)c1C2=O)C[C@@](O)(C(=O)CO)C[C@@H]3O[C@H]1C[C@H](N)[C@H](O)[C@H](C)O1 [DOX, doxorubicin, reference compound]
- GI50 (MCF-7): 150 ± 3 nM
